Assay type in all cases: cell-based, murine
For data set [1], the system named is Hepa1-6 cell line. Put plainly: Mitochondrial reactive oxygen species (MitoSOX Red). The settings on record: for MitoSOX levels: 24 h. How it is done:
Cell culture: The Hepa1-6 cell line (#CRL-1830, ATCC) was cultured in DMEM culture medium containing 1 g/L glucose, 10% fetal bovine serum, 2 mM glutamine, 100 U/mL Penicillin and 100 μg/mL Streptomycin and 30 μM oleic acid. Cells were seeded at a density of 20 000 cells per well in 96 well plates and incubated for overnight to allow the cells to attach at 37° C. with 5% CO2. Cells were then supplemented with the test substances at indicated concentrations and incubated for indicated time periods (24 h). For all assays the test substances were diluted in 10% DMSO/PBS further diluted with culture medium and added to the cells at the indicated concentrations with a final DMSO concentration of 0.01%. Vehicle controls were treated with 0.01% DMSO. Mitochondrial reactive oxygen species (ROS); Cells were treated for 24 h with the test substances at the indicated concentration, as well as positive (10 μM FCCP and 1 μM oligomycin) and negative control. Mitochondrial ROS was detected using MitoSOX™ Red mitochondrial superoxide indicator (#M36008, Invitrogen/Thermo Fisher Scientific). After 24 h treatment of the substances, cells were washed with 100 μl assay buffer (DMEM without phenol red with 4 mM L-glutamine, 4.5 g/L glucose and 1 mM Na-Pyruvate, pH7.4) three times, and 100 μl of […] MitoSOX Red (5 mM MitoSOX™ Red stock solution prepared as indicated by the manufacturer's instruction diluted in 1:2 500 in assay buffer) was added per well, followed by incubation for 30min at 37° C. with 5% CO2. After the incubation cells were washed with 100 μl assay buffer and 100 μl assay buffer was added per well. Fluorescence was measured at excitation 510 nm and emission 580 nm. Use flat, black bottom plates were used.

The subject of data set [2] is Hepa1-6 cell line. Put plainly: Cytotoxicity (CyQuant LDH Cytotoxicity Assay). The conditions noted are these: single agent, 24 h, lower and higher dose range, FIG. 1C and 1F. The protocol: Cells were seeded at a density of 20 000 cells per well in 96 well plates and incubated for overnight to allow the cells to attach at 37° C. with 5% CO2. Cells were then supplemented with the test substances at indicated concentrations and incubated for indicated time periods (24 h). For all assays the test substances were diluted in 10% DMSO/PBS further diluted with culture medium and added to the cells at the indicated concentrations with a final DMSO concentration of 0.01%. Vehicle controls were treated with 0.01% DMSO. Cytotoxicity: Cytotoxicity was assessed using the CyQuant™ LDH Cytotoxicity Assay Kit (#C20300/C20301, Thermo Fisher). After cells were cultured with the test substances for 24 h, 50 μL of the cell culture medium were transferred to a new 96 well plate and the cytotoxicity assay was performed as per the manufacturer's instructions. Absorbance was measured at 490 nm and background at 680 nm. The signal intensity of untreated cells was considered as the background signal of spontaneous LDH release and subtracted from all measurements. Cytotoxicity was expressed as the percentage of maximum signal intensity observed in freshly lysed cells. Flat, clear plate. 10 μM FCCP, 1 μM oligomycin, 0.1% Triton X as positive control.

The test system of data set [3] is Hepa1-6 cell line. Description: ATP content (CellTiter-Glo Assay). The conditions noted are these: for ATP levels: single agent, 24 h, lower (0.1-100 μM) and higher dose range, FIG. 1A and 1D. The protocol: Cell culture: The Hepa1-6 cell line (#CRL-1830, ATCC) was cultured in DMEM culture medium containing 1 g/L glucose, 10% fetal bovine serum, 2 mM glutamine, 100 U/mL Penicillin and 100 μg/mL Streptomycin and 30 μM oleic acid. Cells were seeded at a density of 20 000 cells per well in 96 well plates and incubated for overnight to allow the cells to attach at 37° C. with 5% CO2. Cells were then supplemented with the test substances at indicated concentrations and incubated for indicated time periods (24 h). For all assays the test substances were diluted in 10% DMSO/PBS further diluted with culture medium and added to the cells at the indicated concentrations with a final DMSO concentration of 0.01%. Vehicle controls were treated with 0.01% DMSO. ATP content: Cells were treated for 24 h with the test substances at the indicated concentrations. The cellular ATP content was assessed using the CellTiter-Glo Assay (#G7571, Promega) as per the manufacturer's instructions. Luminescence was detected in a plate reader spectrophotometer. The results were normalized to the luminescence intensity measured in vehicle treated cells and positive controls treated with 0.1% Triton-X, as well as 10 μM FCCP and 1 μM oligomycin. Flat, white bottom plate.

[4] abbreviates: single agent, lower and higher dose range, FIG. 1B and 1E.

Each structure is given as a SMILES string.

Take `CC[C@H]1/C=C/C=C/C[C@@H](C)[C@H](O)[C@@](C)(O)C(=O)[C@@H](C)[C@H](O)[C@@H](C)C(=O)[C@@H](C)[C@H](O)[C@@H](C)/C=C/C(=O)O[C@@H]2[C@H](C)[C@H](CC1)O[C@]1(CC[C@H](C)[C@H](C[C@@H](C)O)O1)[C@H]2C` [oligomycin, reference compound]: the MitoSOX levels entry in the data set with Hepa1-6 cell line [1] (positive control, 1 μM oligomycin) is reported as “no statistically significance”.

For the compound `CN(C)C(=N)N=C(N)N` [Metformin, reference compound], in the data set on Hepa1-6 cell line [2], the “cytotoxicity (LDH)” value is on record as “without cytotoxic effects”. Moreover, the ATP levels entry in the data set with Hepa1-6 cell line [3] is “ATP reduction”. Besides, the MitoSOX levels result in the data set with Hepa1-6 cell line [1] (setting [4]) was “trend of slight increase of MitoSOX levels”.

With `O=Cc1ccc(CO)o1` [5-HMF, 5-Hydroxymethylfurfural], the “cytotoxicity (LDH)” value in the data set with Hepa1-6 cell line [2] was “without cytotoxic effects”. Besides, the “effect on mitochondrial function (ATP levels) compared with metformin” value was “comparable to that of metformin” with Hepa1-6 cell line [3] (FIG. 1 legend, overall) and “milder than that of Metformin” with Hepa1-6 cell line [3] (lower dose range (physiological doses of Metformin), FIG. 1A). Moreover, in the data set on Hepa1-6 cell line [3], the ATP levels result is “ATP reduction”. Moreover, the “effect on mitochondrial function (mitochondrial ROS levels) compared with metformin” value with Hepa1-6 cell line [1] (FIG. 1 legend, overall) is “comparable to that of metformin”. In the data set with Hepa1-6 cell line [1] (lower dose range (physiological doses of Metformin), FIG. 1B), the “effect on mitochondrial function (MitoSOX) compared with Metformin” value is given as “milder than that of Metformin”. For the same compound, in the data set on Hepa1-6 cell line [1] (setting [4]), the MitoSOX levels result is “trend of slight increase of MitoSOX levels”.
